In US8492429B2, “Combination of IAP inhibitors and FLT3 inhibitors” (Novartis AG, priority 2006, dated 2013):

Test system: Ba/F3-FLT3-ITD cells
Experiment: Proliferation of cells cultured in the presence and absence of WEHI (IL-3)
Type: cell-based, murine
Settings: WEHI as source of IL-3

CNC(C)C(=O)NC(C(=O)N1CCC2CCN(CCc3ccccc3)CC21)C1CCCCC1 (stereo not shown) [LBW242]
Inhibition of cellular proliferation in the presence and absence of IL-3: inhibits proliferation of Ba/F3-FLT3-ITD cells in both the absence, as well as the presence of IL-3
